Results reported in PMC10103840 (Frontiers in Pharmacology, 2023).
Where “and” joins values, the source holds several entries; their conditions need not be identical. Identical values can stand only once.

Legend:
BeWo cells = conditions: ref Spiess et al., 2022b, cited from earlier work
human placental barrier = conditions: for Sampling (% found): amount removed by sampling during 240 min perfusion; for M perfusate (% found): maternal perfusate after 240 min
BeWo b30 cells [1] = test: Sodium fluorescein (NaF) exclusion assay for monolayer formation; type: in vitro ADME, human; conditions: day 9 after seeding, 5 μM apical, 60 min
Protocol: Measurement of transepithelial electrical resistance (TER) was used to assess the tightness of a cell-to-cell barrier, and the electrical capacitance Ccl, provided additional information about the properties of the cell layer (e.g., presence of microvilli and other membrane extrusions). TER and Ccl values were recorded in 15 min time intervals, using a cellZscope®. TER values were corrected for the surface area (Ωcm^2) and the reference resistance (well with the same filter insert and medium, but absence of cells). Moreover, a permeability assay with sodium fluorescein (NaF) was performed on days 7–11 (n = 3). The basolateral compartment of a transparent 24-well plate consisted of PBS only (1′000 μL) while NaF (5 μM in PBS; 200 μL) was added to the apical compartment for 60 min. The control consisted of cell-free inserts (n = 3). Basolateral samples (50 μL) were directly added to black Nunc MaxiSorp microtiter plates, and concentrations were determined using a Cytation 3 fluorescence microplate reader (BioTek Instruments; excitation wavelength 460 nm; emission wavelength 515 nm). […]
hyperforin, h ypericin, and valerenic acid. The compounds were spiked into PBS and then […]
to avoid interference of any stabilit y issues. […]
four independent experiments.
Supplementary Figure 3. Evaluation of monolayer formation using a sodium fluorescein […]
Control consists of a cell-free insert […]

[2] = System adherence test (empty perfusion chamber, maternal circuit only); type: in vitro ADME; conditions: % of initial concentration, 5 μM in PM, no placental tissue, 240 min, n = 3
Protocol: The dissolution and adherence of the compounds to the perfusion equipment and to the tubing system was assessed before starting perfusions with human placentae. […] The compounds were directly dissolved in PM at a final concentration of 5 μM (100 mL reservoir) and individually tested in three independent experiments (n = 3).

placental tissue = test: Histopathological evaluation of perfused placentae; set-up: species or system human
Protocol: Immediately after perfusion the placentae were fixed in 4% paraformaldehyde for at least 24 h. Tissue samples from representative placental tissue sections, each from perfused, non-perfused, and transitional area were prepared to perform a pathological examination. For this purpose, the tissue was embedded in paraffin, cut (∅ 2-3 µm), and stained (standard hematoxylin-eosin stain, Braun-Brenn modified Gram stain) according to the standards of routine histopathological diagnosis of the Department of Pathology and Molecular Pathology (University Hospital of Zurich). […] The blood void and width of the intervillous space and fetal blood vessels in the chorionic villi provided information about the quality of perfusion, and particular attention was paid to the presence of intravascular thrombi. General signs of degeneration, such as vacuolization of the cytotrophoblast, villous vascular endothelium viability, and formation of hydropic villous changes compared with non-perfused tissue indicated whether tissue damage might have occurred during perfusion. Microscopic effects and placental tissue damage in the perfused area were expressed in relative amounts (%) to the non-perfused tissue.

[3] = Transwell control experiments across cell-free inserts; conditions: semi-permeable cell-free insert, within 60 min, 5 μM
in vitro = conditions: human, pH 7.2
[4] = Stability assay in PBS, perfusion medium and placental homogenates; type: in vitro ADME, human; conditions: 360 min
Protocol: In short, after spiking the various matrices with the study compounds, samples were either processed immediately for U(H)PLC-MS/MS analysis (C0), or kept at 4°C/37°C on an orbital shaker (600 rpm) for 360 min before processing for U(H)PLC-MS/MS analysis. Samples were processed via solid phase extraction or protein precipitation prior to analysis.

[5] = In vitro Transwell permeability assay across BeWo b30 cell layer; conditions: human
Protocol: (§1) BeWo b30 choriocarcinoma cells were obtained from Dr. Tina Buerki-Thurnherr (Empa, St. Gallen, Switzerland), with permission from Dr. Alan L. Schwartz (Washington University School of Medicine, St. Louis MO, USA), and were cultivated in F-12 K Nut Mix supplemented with 10% heat inactivated FBS, antibiotics (100 U/mL penicillin, 100 µg/mL […]), and 2 mM L-glutamine (all from Gibco). The cells were cultivated in a humidified incubator at 37°C and 5% CO2 atmosphere.
(§2) BeWo b30 cells were cultured on Transwell® polycarbonate membrane inserts (24-well format; 0.4 μm pore size, 0.33 cm^2 cell growth area, 200 μL apical volume, 1′000 μL basolateral volume; Corning, Sigma-Aldrich) at a density of 60′000 cells/well. These inserts were then cultivated in a cellZscope (nanoAnalytics) at 37°C/5% CO2. Cell culture medium was replaced every 2 days up to 11 days to find the best possible conditions.
(§3) BeWo b30 cells were cultured in transparent 24-well plates under the same conditions as mentioned above and transferred to the cellZscope® at day 8 to record TER and Ccl values. After 24 h (day 9) and when a TER of 30–60 Ωcm^2 was reached and Ccl was between 0.5 and 5.0 μF/cm^2, the permeability assay was initiated by adding valerenic acid (5 μM; in HBSS with 4% BSA) to the apical compartment, while the basolateral compartment contained 1′000 μL of HBSS only. […] Samples (150 μL apical, 800 μL basolateral) were collected at each time point (0, 15, 30, 60 min; one insert per time point). After 60 min, a part of the inserts was transferred back to the cellZscope® to monitor TER and Ccl values during another 24 h. The cells grown on the other part of the inserts were quickly washed with 200 μL of cold HBSS and then lysed with 700 μL acetonitrile (100 μL apical, 600 μL basolateral) for 40 min on an orbital shaker (450 rpm, room temperature) to determine the test substance cell contents.
(§4) Apparent permeability coefficients (Papp) were calculated according to the following Eq. 1: Papp cm/s=∆Q/∆t/ACA0 (1) where ΔQ/Δt is the rate of amount transported to the receiver compartment, A is the membrane surface area (0.33 cm^2), and C A0 is the initial concentration in the apical compartment.
(§5) The clearance values were calculated according to the following Eq. 2 ([Neuhaus et al., 2008]): Clearance μL=CBnVB/CA−VB/VA∙∑CBn−1 (2) where C Bn and V B are the concentration and volume in the basolateral compartment at a specific timepoint (n), respectively; C A and VA are the concentration and volume in the apical compartment, respectively, and C Bn-1 is the total amount of substance found in the basolateral compartment up to the previous timepoint (n-1).
(§6) Recovery (mass balance) of each compound was calculated according to the following Eq. 3: Recovery %=CAfVA+CBfVB+CCfVC/CA0VA∙100 (3) where C Af , C Bf and C Cf are the final compound concentrations in apical, basolateral, and cellular compartments, respectively; C A0 is the initial concentration in the apical compartment, and V A , V B and V C are the volumes in the respective compartments.
(§7) For valerenic acid, 150 µL of the IS in MeOH were added to 50 µL of sample, and the mixture centrifuged for 20 min at 13′200 rpm/16′100 rcf at 10°C (Centrifuge 5415R, Eppendorf). An aliquot (50 µL) of the supernatant was collected and transferred into HPLC vials. Vials were centrifuged for additional 20 min prior to U(H)PLC-MS/MS analysis in full loop mode (2 µL).

BeWo b30 cells [6] = test: as above
Protocol: as §1, §2, §3, §4, §5, §6, §7

[7] = after 240 min of perfusion, 5 μM added to maternal circuit
[8] = % of amount in maternal sample at beginning
[9] = non-perfused area of same placenta

CC(C)=CCC[C@]1(C)[C@@H](CC=C(C)C)C[C@]2(CC=C(C)C)C(=O)C(CC=C(C)C)=C(O)[C@@]1(C(=O)C(C)C)C2=O [Hyperforin, hyperforin]
Concentration with increased apoptosis / apoptotic effects (BeWo cells): ≥ 3 µM
Transplacental transfer (in words) (human placental barrier; 240 min perfusion, 5 μM maternal): little transfer to the fetal circuit
Concentration in the maternal compartment (human placental barrier; [7]): 68.6 % of initial concentration
Sampling (% found) (human placental barrier): 21.0 ± 4.5%
M perfusate (% found) (human placental barrier; [8]): 52.2 ± 21.5% and 52.2%

O=C([O-])c1ccccc1-c1c2ccc(=O)cc-2oc2cc([O-])ccc12.[Na+].[Na+] [NaF, sodium fluorescein]
Basolateral amount of NaF (BeWo b30 cells [1]): 2.8 % of the initial NaF concentration

CC1=C2[C@H](/C=C(\C)C(=O)O)CC[C@@H](C)[C@H]2CC1 [Valerenic acid, valerenic acid]
Concentrations not lowering viability, no increase in apoptosis or genotoxicity, no negative effect on metabolic activity and cell differentiation (BeWo cells; BeWo b30 cells): up to 30 μM
Compound lost / adhering to the perfusion equipment [2]: 5.6% and 5.6% ± 1.9%
Concentration in the fetal compartment (human placental barrier; [7]): 44.0 % of initial concentration
Concentration in the maternal compartment (human placental barrier; [7]): 45.0 % of initial concentration
Sampling (% found) (human placental barrier): 24.1 ± 4.8%
F perfusate (% found) (human placental barrier; fetal perfusate after 240 min, % of amount in maternal sample at beginning): 33.1 ± 10.7% and 33.1%
FM ratio at 240 min (human placental barrier; fetal/maternal concentration ratio, 240 min, antipyrine from control perfusions): 1.01
M perfusate (% found) (human placental barrier; [8]): 34.4%
Time to equilibrium between fetal and maternal compartment (human placental barrier; perfusion profiles, antipyrine as connectivity control): 240 min
Global placental pathology: Else (placental tissue): Formation of artificial cavities in 10% of perfused areas and N and Singular non-occlusive thrombus in stem villus; CCB
Sharp transition perfused/non-perfused (placental tissue): Y and N
Extravasations into villous stroma (in words) (placental tissue; after perfusion): no extravasations into villous stroma
Ruptures of villous vessels (in words) (placental tissue; after perfusion): no ruptures of villous vessels
Emptiness of villous vessels in non-perfused (placental tissue; [9]): 10% and 1%
Hydropic changes in non-perfused (placental tissue; [9]): 5% and 0%
Intervillous spaces without blood in non-perfused (placental tissue; [9]): 70% and 50% and 60% and 40%
Thrombi in villous vessels: in non-perfused too? (placental tissue; [9]): 1%
Vacuolated trophoblast in villi: in non-perfused too? (placental tissue; [9]): 0% and 5%
Thrombi in vessels of stem villi (in words) (placental tissue; perfused and non-perfused): no thrombi detectable
Dilatated intervillous space (placental tissue; perfused area): 50% and 90% and 70%
Intervillous spaces without blood (placental tissue; perfused area): 95%
Emptiness of villous vessels (placental tissue; perfused area, individual experiments): 95% and 80% (2×) and 90%
Clearance across cell-free insert [3]: 28.3 µL
recovery at 240 min, 5 μM (in vitro): 91.5%
Stability in PBS and PM [4]: approx. 100%
recovery at 60 min, 5 μM [5]: 73.7%
Passage across the placental cell layer (in words) (BeWo b30 cells [6]; 5 μM apical, HBSS with 4% BSA, 60 min): did not cross the placental cell layer within 60 min
Papp (BeWo b30 cells [6]; apical to basolateral, BeWo b30 cell layer, 5 μM): zero
